ChEMBL document CHEMBL4270589, “Novel coumarin-pyrazole carboxamide derivatives as potential topoisomerase II inhibitors: Design, synthesis and antibacterial activity” (Eur J Med Chem, 2018)
Converted amounts (≈) assume the structure as drawn.

Experiments:
Type in all cases: functional
Staphylococcus aureus = test: Antibacterial activity against Staphylococcus aureus ATCC 12600 after 24 hrs by agar dilution method; settings: ATCC 12600, 24 h
Listeria monocytogenes = test: Antibacterial activity against Listeria monocytogenes ATCC 15313 after 24 hrs by agar dilution method; settings: ATCC 15313, 24 h
Escherichia coli = test: Antibacterial activity against Escherichia coli ATCC 25922 after 24 hrs by agar dilution method; settings: ATCC 25922, 24 h
Salmonella enterica = test: Antibacterial activity against Salmonella enterica ATCC 9184 after 24 hrs by agar dilution method; settings: ATCC 9184, 24 h

SMILES | MIC (Staphylococcus aureus) [µg/mL] | MIC (Listeria monocytogenes) [µg/mL] | MIC (Escherichia coli) [µg/mL] | MIC (Salmonella enterica) [µg/mL]
O=C(O)c1cnn(-c2ccc(F)cc2)c1NC(=O)c1cc2cc(Br)ccc2oc1=O | > 128 | 32 (≈ 67.8 µM) | 4 (≈ 8.47 µM) | 32 (≈ 67.8 µM)
N#Cc1cnn(-c2ccc(F)cc2)c1NC(=O)c1cc2ccccc2oc1=O | > 128 | 64 (≈ 171 µM) | > 128 | > 128
CCOC(=O)c1cnn(-c2ccccc2)c1NC(=O)c1cc2cc(Cl)ccc2oc1=O | 4 (≈ 9.14 µM) | 64 (≈ 146 µM) | 16 (≈ 36.5 µM) | 64 (≈ 146 µM)
CCOC(=O)c1cnn(-c2ccc(Cl)cc2)c1NC(=O)c1cc2cc([N+](=O)[O-])ccc2oc1=O | 32 (≈ 66.3 µM) | 32 (≈ 66.3 µM) | 64 (≈ 133 µM) | 64 (≈ 133 µM)
CCOC(=O)c1cnn(-c2ccc(C)cc2)c1NC(=O)c1cc2cc(Cl)ccc2oc1=O | 4 (≈ 8.85 µM) | 2 (≈ 4.43 µM) | 64 (≈ 142 µM) | > 128
O=C(O)c1cnn(-c2ccc(F)cc2)c1NC(=O)c1cc2ccccc2oc1=O | > 128 | > 128 | > 128 | > 128
CCOC(=O)c1cnn(-c2ccc(Cl)cc2)c1NC(=O)c1cc2cc(Br)ccc2oc1=O | 4 (≈ 7.74 µM) | 1 (≈ 1.94 µM) | 8 (≈ 15.5 µM) | 32 (≈ 61.9 µM)
CCOC(=O)c1cnn(-c2ccccc2)c1NC(=O)c1cc2ccccc2oc1=O | 16 (≈ 39.7 µM) | 64 (≈ 159 µM) | 64 (≈ 159 µM) | 2 (≈ 4.96 µM)
Cc1ccc(-n2ncc(C#N)c2NC(=O)c2cc3cc([N+](=O)[O-])ccc3oc2=O)cc1 | > 128 | > 128 | > 128 | > 128
CCOC(=O)c1cnn(-c2ccc(C)cc2)c1NC(=O)c1cc2ccccc2oc1=O | > 128 | 32 (≈ 76.7 µM) | > 128 | > 128
N#Cc1cnn(-c2ccc(Cl)cc2)c1NC(=O)c1cc2cc(Br)ccc2oc1=O | 4 (≈ 8.52 µM) | 16 (≈ 34.1 µM) | 8 (≈ 17 µM) | 0.25 (≈ 0.532 µM)
Cc1ccc(-n2ncc(C#N)c2NC(=O)c2cc3cc(Cl)ccc3oc2=O)cc1 | > 128 | > 128 | > 128 | > 128
O=C(O)c1cnn(-c2ccccc2)c1NC(=O)c1cc2cc(Cl)ccc2oc1=O | 32 (≈ 78.1 µM) | 32 (≈ 78.1 µM) | 32 (≈ 78.1 µM) | > 128
O=C(O)c1cnn(-c2ccc(F)cc2)c1NC(=O)c1cc2cc(Cl)ccc2oc1=O | 64 (≈ 150 µM) | 32 (≈ 74.8 µM) | 32 (≈ 74.8 µM) | > 128
CCOC(=O)c1cnn(-c2ccccc2)c1NC(=O)c1cc2cc(Br)ccc2oc1=O | 16 (≈ 33.2 µM) | 16 (≈ 33.2 µM) | 16 (≈ 33.2 µM) | 64 (≈ 133 µM)
Cc1ccc(-n2ncc(C#N)c2NC(=O)c2cc3ccccc3oc2=O)cc1 | 8 (≈ 21.6 µM) | > 128 | 32 (≈ 86.4 µM) | > 128
CCOC(=O)c1cnn(-c2ccccc2)c1NC(=O)c1cc2cc([N+](=O)[O-])ccc2oc1=O | > 128 | > 128 | > 128 | > 128
N#Cc1cnn(-c2ccc(F)cc2)c1NC(=O)c1cc2cc(Br)ccc2oc1=O | 2 (≈ 4.41 µM) | 64 (≈ 141 µM) | 64 (≈ 141 µM) | > 128
O=C(O)c1cnn(-c2ccccc2)c1NC(=O)c1cc2cc(Br)ccc2oc1=O | > 128 | > 128 | > 128 | > 128
N#Cc1cnn(-c2ccc(Cl)cc2)c1NC(=O)c1cc2cc([N+](=O)[O-])ccc2oc1=O | 16 (≈ 36.7 µM) | 8 (≈ 18.4 µM) | 4 (≈ 9.18 µM) | 0.125 (≈ 0.287 µM)
Cc1ccc(-n2ncc(C(=O)O)c2NC(=O)c2cc3cc(Br)ccc3oc2=O)cc1 | 64 (≈ 137 µM) | > 128 | 64 (≈ 137 µM) | > 128
N#Cc1cnn(-c2ccc(F)cc2)c1NC(=O)c1cc2cc([N+](=O)[O-])ccc2oc1=O | > 128 | > 128 | > 128 | > 128

SMILES | MIC (Staphylococcus aureus) [µg/mL] | MIC (Listeria monocytogenes) [µg/mL] | MIC (Escherichia coli) [µg/mL] | MIC (Salmonella enterica) [µg/mL]
N#Cc1cnn(-c2ccccc2)c1NC(=O)c1cc2ccccc2oc1=O | 16 (≈ 44.9 µM) | 64 (≈ 180 µM) | 64 (≈ 180 µM) | 32 (≈ 89.8 µM)
CCOC(=O)c1cnn(-c2ccc(Cl)cc2)c1NC(=O)c1cc2cc(Cl)ccc2oc1=O | 2 (≈ 4.23 µM) | 32 (≈ 67.8 µM) | 4 (≈ 8.47 µM) | 32 (≈ 67.8 µM)
N#Cc1cnn(-c2ccc(F)cc2)c1NC(=O)c1cc2cc(Cl)ccc2oc1=O | 32 (≈ 78.3 µM) | 32 (≈ 78.3 µM) | 32 (≈ 78.3 µM) | 64 (≈ 157 µM)
O=C(O)c1cnn(-c2ccc(Cl)cc2)c1NC(=O)c1cc2ccccc2oc1=O | 32 (≈ 78.1 µM) | 32 (≈ 78.1 µM) | 64 (≈ 156 µM) | 32 (≈ 78.1 µM)
CCOC(=O)c1cnn(-c2ccc(C)cc2)c1NC(=O)c1cc2cc(Br)ccc2oc1=O | 32 (≈ 64.5 µM) | 2 (≈ 4.03 µM) | 32 (≈ 64.5 µM) | 2 (≈ 4.03 µM)
CCOC(=O)c1cnn(-c2ccc(F)cc2)c1NC(=O)c1cc2cc(Cl)ccc2oc1=O | > 128 | > 128 | 64 (≈ 140 µM) | 64 (≈ 140 µM)
CCOC(=O)c1cnn(-c2ccc(F)cc2)c1NC(=O)c1cc2ccccc2oc1=O | > 128 | > 128 | > 128 | > 128
N#Cc1cnn(-c2ccccc2)c1NC(=O)c1cc2cc(Cl)ccc2oc1=O | 16 (≈ 40.9 µM) | 32 (≈ 81.9 µM) | 32 (≈ 81.9 µM) | 64 (≈ 164 µM)
CCOC(=O)c1cnn(-c2ccc(C)cc2)c1NC(=O)c1cc2cc([N+](=O)[O-])ccc2oc1=O | > 128 | > 128 | > 128 | > 128
CCOC(=O)c1cnn(-c2ccc(Cl)cc2)c1NC(=O)c1cc2ccccc2oc1=O | 16 (≈ 36.5 µM) | 64 (≈ 146 µM) | 64 (≈ 146 µM) | 16 (≈ 36.5 µM)
O=C(O)c1cnn(-c2ccccc2)c1NC(=O)c1cc2ccccc2oc1=O | > 128 | 32 (≈ 85.3 µM) | > 128 | > 128
CCOC(=O)c1cnn(-c2ccc(F)cc2)c1NC(=O)c1cc2cc(Br)ccc2oc1=O | 64 (≈ 128 µM) | > 128 | 4 (≈ 8 µM) | > 128
N#Cc1cnn(-c2ccc(Cl)cc2)c1NC(=O)c1cc2ccccc2oc1=O | 4 (≈ 10.2 µM) | 32 (≈ 81.9 µM) | 32 (≈ 81.9 µM) | 16 (≈ 40.9 µM)
Cc1ccc(-n2ncc(C#N)c2NC(=O)c2cc3cc(Br)ccc3oc2=O)cc1 | > 128 | 8 (≈ 17.8 µM) | > 128 | 64 (≈ 142 µM)
N#Cc1cnn(-c2ccc(Cl)cc2)c1NC(=O)c1cc2cc(Cl)ccc2oc1=O | 4 (≈ 9.41 µM) | 8 (≈ 18.8 µM) | 4 (≈ 9.41 µM) | 64 (≈ 151 µM)
O=C(O)c1cnn(-c2ccc(Cl)cc2)c1NC(=O)c1cc2cc(Br)ccc2oc1=O | 32 (≈ 65.5 µM) | 32 (≈ 65.5 µM) | 4 (≈ 8.19 µM) | 32 (≈ 65.5 µM)
Cc1ccc(-n2ncc(C(=O)O)c2NC(=O)c2cc3cc(Cl)ccc3oc2=O)cc1 | > 128 | 16 (≈ 37.8 µM) | > 128 | > 128
N#Cc1cnn(-c2ccccc2)c1NC(=O)c1cc2cc([N+](=O)[O-])ccc2oc1=O | > 128 | > 128 | > 128 | > 128
CCOC(=O)c1cnn(-c2ccc(F)cc2)c1NC(=O)c1cc2cc([N+](=O)[O-])ccc2oc1=O | 32 (≈ 68.6 µM) | 8 (≈ 17.2 µM) | 64 (≈ 137 µM) | > 128
Cc1ccc(-n2ncc(C(=O)O)c2NC(=O)c2cc3ccccc3oc2=O)cc1 | 64 (≈ 164 µM) | > 128 | 64 (≈ 164 µM) | > 128
N#Cc1cnn(-c2ccccc2)c1NC(=O)c1cc2cc(Br)ccc2oc1=O | > 128 | > 128 | > 128 | > 128
